Measured values published in patent US11197885B2, “Collagen enhancing agent made from low acyl gellan gum, methods of making and methods of using the same” (The University of Toledo, priority 2015, dated 2021).

Experiments:
FGFR1 = FGFR1 (Mus musculus, UniProt P16092); assay: affinity chromatography with midi-GAGR-conjugated sepharose beads, FGFR1 immunoblotting; assay type: binding; parameters: Whole mouse brains were homogenized for cytosol extraction in PMEE buffer containing 1% Igepal CA-630; from tissue; host or cells: mouse brain (cerebral cortex / whole brain) detergent extract; conditions: 0.5% Igepal CA-630 PMEE buffer
Procedure: To examine whether midi-GAGR interacts with synaptosomal FGFR1 or not, an affinity chromatography using midi-GAGR-conjugated sepharose beads was performed. Either midi-GAGR or dextran were conjugated to epoxy-activated sepharose 6B that is a pre-activated medium that can be conjugated to the hydroxyl groups of carbohydrates. Briefly, 200 μL of 7.4 mM midi-GAGR or 5 kD dextran in H2O was mixed with 200 μL of epoxy-activated sepharose beads in a microtube and incubated on a rotator (16 h, 37° C.). The mixture was spun down at 1,000×g (10 min) to separate bead-bound polysaccharides from unbound. Unoccupied active sites on beads were blocked by incubation (4 h, 45° C.) in 1 M ethanolamine (pH 8). Then, beads were washed with three cycles of alternating pH solutions—0.1 M acetate buffer (pH 4) and 0.1 M Tris-HCl buffer (pH 8), both containing 0.5 M NaCl. The conjugation of polysaccharides to beads was confirmed by phenol-sulfuric acid colorimetry. Cerebral cortices were dissected from four female mice (BALB/C, 8 wks old) and homogenized with a hand grinder in 1 mL of PMEE homogenization buffer plus 1% Igepal CA-630 and protease inhibitors (PIs). The homogenate was centrifuged at 1,000×g (10 min) to remove nuclei and undisrupted cells. The supernatant was subjected to 5-6 strokes through 27G needle. Post-nuclear supernatant was centrifuged at 1,000×g (15 min). […]

[1] = system: rat embryonic cortical neurons exposed to 25 μM 4-HNE; assay: neuritic atrophy caused by 4-HNE in cortical neurons; assay type: cell-based; conditions: pre-treatment 2 days (1 μM; ascorbate 100 μM), then 25 μM 4-HNE 1 day
Procedure: Rat embryonic cortical neurons were treated with mock (FIG. 11C), 1 μM HA-GAGR (high acyl gellan gum), 1 μM dextran, 100 μM ascorbate, or 1 μM midi-GAGR (FIG. 13A) for 2 days and then with 25 μM 4-hydroxynonenal (4-HNE), a lipid peroxide, for 1 day. After fixation, neurons were immunostained with anti-synaptophysin antibody (green) and rhodamine-phalloidin (actin: red). Scholl ring analysis was performed.

[2] = system: differentiated dopaminergic PC12 cells exposed to 30 μM 6-OHDA; assay: LIVE/DEAD viability of differentiated PC12 cells exposed to 6-OHDA; assay type: cell-based; conditions: 1 μM for 6 h, then 30 μM 6-OHDA for 24 h
Procedure: Differentiated dopaminergic PC12 cells and primary mouse embryonic cortical neurons (E17, DIV14) were treated with mock (H2O) or 1 μM of dextran, alginate, HA-GAGR, or midi-GAGR for 6 h and insulated by oxidative stressors (30 μM 6-OHDA [PC12] and 10 μM amyloid β peptide [cortical neurons]) for 24 h.

[3] = system: phosphorylated CREB in mouse embryonic cortical neurons; assay: nuclear p-CREB immunostaining in embryonic cortical neurons (Example 2); assay type: cell-based; conditions: 1 μM, 24 h
Procedure: Differentiated PC12 cells and mouse embryonic cortical neurons (E17, DIV14) were treated with mock, dextran, alginate, HA-GAGR, or midi-GAGR (1 μM) for 24 h and fixed in 3.7% paraformaldehyde. The fixed cells and neurons were immunostained with antibodies against α-tubulin and phosopho-CREB (p-CREB) along with DAPI (nucleus).

[4] = system: primary mouse cortical neurons (E17, DIV4); assay: neurite outgrowth in primary mouse cortical neurons; assay type: cell-based; conditions: 2 days; midi-GAGR, dextran, alginate 1 μM; LA-GAGR 0.1 μM; HA-GAGR 0.01 μM
Procedure: To analyze the effect of polysaccharides on neurite outgrowth, primary mouse cortical neurons were treated with vehicle (H2O) or 1 μM of dextran, alginate, or midi-GAGR, 0.01 μM of HA-GAGR, or 0.1 μM of LA-GAGR for 2 days prior to immunocytochemistry using anti-α-tubulin antibody and secondary Alexa488nm antibody. An etched grid coverslip containing 200 numbered boxes was used to select neurons objectively for image acquisition and analysis. A total of 24 boxes were randomly selected per treatment group. All the neurons having total neurite length longer than 4 times of the diameter of neuron cell body were chosen for image analysis. The total length of the neurites of each neuron was measured using Metamorph and used to calculate average total neurite length. To examine the effect of polysaccharides on the phosphorylation (activation) of nuclear CREB, neurons were stained with anti-pCREB antibody (Abcam & Santa Cruz biotechnologies, 2nd antibody with Alexa568nm), anti-α-tubulin antibody (Sigma, 2nd antibody with Alexa488nm), and DAPI (Sigma) after two-day incubation with vehicle (H2O) or 1 μM of dextran, alginate, or midi-GAGR, 0.01 μM of HA-GAGR, or 0.1 μM of LA-GAGR. […] The images of neurons on coverslips were taken by confocal microscopy at the same gain (850), offset (−0.01), and exposure time (2 sec). The intensity of the staining of nuclear pCREB was measured using Metamorph and used to calculate average intensity. In addition, the phosphorylation of CREB in the cytosols of mouse cortical neurons treated with polysaccharides were detected by immunoblotting. Primary mouse neurons were dissected from 16 mouse embryos (E17) and plated in the wells of 6-well plates (1×10^6 cells/well), differentiated for 6 days, and treated with polysaccharides for 48 h. […] The protein bands on blots recognized by anti-pCREB (Santa Cruz Biotechnologies) and anti-CREB antibodies were detected on Amersham Hyperfilm™ ECL films (GE Healthcare Life Science) using SuperSignal® West Pico Chemiluminescent Substrate (Thermo Scientific).

Chain of FGFR1 (P16092 22-822): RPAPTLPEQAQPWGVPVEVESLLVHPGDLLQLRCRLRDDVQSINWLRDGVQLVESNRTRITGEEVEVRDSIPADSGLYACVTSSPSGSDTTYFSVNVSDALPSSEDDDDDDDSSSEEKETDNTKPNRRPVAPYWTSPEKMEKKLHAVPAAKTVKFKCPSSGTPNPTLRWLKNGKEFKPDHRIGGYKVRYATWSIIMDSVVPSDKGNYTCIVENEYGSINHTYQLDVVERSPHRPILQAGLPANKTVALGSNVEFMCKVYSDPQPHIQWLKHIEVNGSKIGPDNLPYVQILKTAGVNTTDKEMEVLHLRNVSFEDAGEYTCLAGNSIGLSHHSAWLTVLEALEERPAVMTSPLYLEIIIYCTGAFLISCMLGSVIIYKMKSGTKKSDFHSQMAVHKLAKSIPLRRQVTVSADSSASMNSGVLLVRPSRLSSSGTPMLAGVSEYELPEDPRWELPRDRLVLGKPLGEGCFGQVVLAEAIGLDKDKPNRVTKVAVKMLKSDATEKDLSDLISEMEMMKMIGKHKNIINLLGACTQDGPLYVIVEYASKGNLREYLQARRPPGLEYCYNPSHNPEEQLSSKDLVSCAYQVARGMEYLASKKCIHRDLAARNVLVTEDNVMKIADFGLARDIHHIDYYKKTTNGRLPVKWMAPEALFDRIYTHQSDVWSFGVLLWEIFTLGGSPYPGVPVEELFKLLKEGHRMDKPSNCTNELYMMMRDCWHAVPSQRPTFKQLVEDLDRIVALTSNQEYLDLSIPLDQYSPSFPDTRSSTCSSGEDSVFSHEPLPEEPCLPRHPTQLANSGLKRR

dextran
FGFR1 pulled down from brain extract by polysaccharide-conjugated beads (FGFR1): not
neurites in the presence of 4-HNE (neuritic atrophy) [1]: lost neuritis
6-OHDA-induced cell death [2]: did not
increase in levels of nuclear p-CREB [3]: not significantly increased
fold change in average total neurite length vs vehicle [4]: did not enhance neuritogenesis
